Where “and” joins values, the source holds several entries; their conditions need not be identical. Equal entries are not always repeated.
What was measured:
[1] = tested on: neutrophil elastase; assay: Elastase activity and cell number in peripheral blood neutrophils after administration to rats; type: in vivo; conditions: rat, 8 mg/kg twice daily i.v. for three days
Experimental: (§1) Inhibitor A or B were each injected twice daily into the tail vein of a rat (8 mg/kg) over a period of three days. Inflammation was not induced in these rats. […] WBC=white blood cells; PMN=polymorphonuclear leukocytes; The elastase assay has been disclosed above.

[2] = tested on: peripheral blood neutrophils and lymphocytes; assay: Peripheral blood cell distribution after administration to rats without inflammation; type: in vivo; conditions: rat, 8 mg/kg twice daily for three days, no inflammation
Experimental: Compound A or Compound B were each administered twice daily for three days at a dose of 8 mg/kg. Inflammation was not induced in these rats. […] However, substitution of the aspirin moiety with a fluorine atom, as found in Compound B, prevents an increase in neutrophil cell number.

[3] = tested on: neutrophil diapedesis (peritonitis); assay: Inhibition of neutrophil diapedesis after experimentally induced (starch) peritonitis; type: in vivo, rat; conditions: for Abdominal Lavage Cell Distribution, Lymphocytes / Abdominal Lavage Cell Distribution, Macrophages Monocytes / Abdominal Lavage Cell Distribution, Neutrophils: 4 hours
Experimental: (§2) Each compound (A-D) was individually injected into the tail vein of a rat in a single dose (8 mg/kg). After injection, peritonitis was induced in the rat by an IP (intraperitoneal) injection of 1 ml of a 0.1% soluble starch solution. After 4 hours, the peritoneal cavity was lavaged with saline in order to determine the number and type of cells responding to peritonitis. Cell numbers were determined by a Coulter counter and cell type (e.g. lymphocytes, neutrophils, macrophages and monocytes) by standard Cytospin and Giemsa staining. Cell number and type was evaluated after IP injection of saline (negative control, no inflammation), starch (positive control, inflammation) or starch with IV injection of an inhibitor (experimental, inflammation). Inhibitors were dissolved in DMSO prior to administration.

[4] = tested on: rat; assay: Overt toxicity in injected rats; type: in vivo; conditions: rat, 8 mg/kg twice daily i.v. for three days
Experimental: as §1, §2

[5] = peripheral blood neutrophils, per animal, 8 mg/kg
[6] = Experiment 1, starch, 8 mg/kg i.v. single dose
[7] = Experiment 2, saline (no inflammation) + drug
[8] = Experiment 2, starch, 8 mg/kg i.v. single dose

Structure (SMILES): O=C1c2ccccc2S(=O)(=O)N1CF [Drug B]
- Elastase Activity [1, 5]: 0.125 ΔOD/min/ml and 0.05 ΔOD/min/ml
- Elastase Activity Rate/10^6 PMN [1, 5]: 0.0154 and 0.0159
- entry into neutrophils in vivo (in words) [1]: do not enter neutrophils in vivo
- inactivation of neutrophil intracellular proteinase (in words) [1]: fails to inactivate neutrophil intracellular proteinase
- PMN ([1]; per animal, 8 mg/kg): 8.14 × 10^6 and 3.15 × 10^6
- Total WBC ([1]; per animal, 8 mg/kg): 22.0 × 10^6 and 15.0 × 10^6
- effect on elastase activity in circulating neutrophils (in words) ([1]; vs vehicle): did not reduce elastase activity in circulating neutrophils
- Peripheral Blood Cell Distribution, Lymphocytes ([2]; per animal, 8 mg/kg): 63% and 79%
- Peripheral Blood Cell Distribution, Neutrophils ([2]; per animal, 8 mg/kg): 37% and 21%
- effect on number of neutrophils in peripheral circulation (in words) ([2]; vs vehicle): did not cause an increase in neutrophil number
- Total Number of Cells Lavaged at 4 Hours, Lymphocytes [3, 6]: 8.1 × 10^6
- Total Number of Cells Lavaged at 4 Hours, Macrophages Monocytes [3, 6]: 7.8 × 10^6
- Total Number of Cells Lavaged at 4 Hours, Neutrophils [3, 6]: 10.1 × 10^6
- Total Number of Cells Lavaged at 4 Hours, Total Cells [3, 6]: 26 × 10^6
- Abdominal Lavage Cell Distribution, Lymphocytes [3, 6]: 31%
- Abdominal Lavage Cell Distribution, Macrophages Monocytes [3, 6]: 30%
- Abdominal Lavage Cell Distribution, Neutrophils [3, 6]: 39%
- Total Number of Cells Lavaged at 4 Hours, Lymphocytes [3, 7]: 2.6 × 10^6
- Total Number of Cells Lavaged at 4 Hours, Macrophages Monocytes [3, 7]: 14.5 × 10^6
- Total Number of Cells Lavaged at 4 Hours, Neutrophils [3, 7]: 4.8 × 10^6
- Total Number of Cells Lavaged at 4 Hours, Total Cells [3, 7]: 22 × 10^6
- Abdominal Lavage Cell Distribution, Lymphocytes [3, 7]: 12%
- Abdominal Lavage Cell Distribution, Macrophages Monocytes [3, 7]: 66%
- Abdominal Lavage Cell Distribution, Neutrophils [3, 7]: 22%
- Total Number of Cells Lavaged at 4 Hours, Lymphocytes [3, 8]: 9.9 × 10^6
- Total Number of Cells Lavaged at 4 Hours, Macrophages Monocytes [3, 8]: 9.6 × 10^6
- Total Number of Cells Lavaged at 4 Hours, Neutrophils [3, 8]: 12.5 × 10^6
- Total Number of Cells Lavaged at 4 Hours, Total Cells [3, 8]: 32 × 10^6
- Abdominal Lavage Cell Distribution, Lymphocytes [3, 8]: 31%
- Abdominal Lavage Cell Distribution, Macrophages Monocytes [3, 8]: 30%
- Abdominal Lavage Cell Distribution, Neutrophils [3, 8]: 39%
- reduction of peritonitis induced neutrophil diapedesis ([3]; rat, 8 mg/kg i.v. single dose): more than 50%
- overt signs of toxicity [4]: no overt signs of toxicity

— US5550139A, “Serine protease inhibitors” (The Wichita State University, priority 1994, dated 1996)
